Earlier results on one compound are cited in patent publication US20180325839A1, “TRANSDERMAL PATCHES” (BUZZZ PHARMACEUTICALS LIMITED, priority 2015, published 2018).

Each structure is given as a SMILES string.

The conditions of data set [1]: local anaesthetic during cataract surgery.

As to `CCCN1CCCC[C@H]1C(=O)Nc1c(C)cccc1C` [ropivacaine, (2S)—N-(2,6-dimethylphenyl)-1-propyl-2-piperidinecarboxamide], in data set [1], the “Half-life compared with lidocaine” value was “longer” and the “Potency relative to lidocaine, dose-for-dose” value was “as much as four times as potent as lidocaine”. The “Skin permeation characteristics compared with lidocaine saturated H2O” value (ropivacaine saturated H2O) was “significantly poorer”. Further, where the note is “saturated solution of ropivacaine”, the “In vivo skin penetration compared to a saturated solution of lidocaine” value is recorded as “poor”.
